According to US8637677B2, “Organic dicarboxylic acids, salts and preparation method thereof” (Southeast University, priority 2009, dated 2014):

Tests used:
[1] = system: in vitro eye lens of rabbits; assay: resisting oxidative damage to in vitro eye lens of rabbits induced by H2O2 (lens opacification grading); format: cell-based; conditions: rabbit lens; for Comments (improvement versus model group) / Observation Results + (number of lenses with mild opacity, degree I) / Observation Results ++ (number of lenses with moderate opacity, degree II) / Percentages for different degrees % + Degree (I) / Percentages for different degrees % >++ Degrees(I, II) / Observation Results +++ (number of lenses totally opacified, degree III): 2% H2O2 + 0.02% FeCl3, 24 h culture, sample and BDL 0.5 mmol/L; for Observation Results + (number of lenses with mild opacity, degree I) / Observation Results ++ (number of lenses with moderate opacity, degree II) / Percentages for different degrees % + Degree (I) / Percentages for different degrees % >++ Degrees(I, II) / Observation Results +++ (number of lenses totally opacified, degree III): vitamin C 1 mmol/L; for inhibitory effects on oxidative damage to in vitro eye lens of rabbits induced by H2O2: sample 0.5 mmol/L, table 1
Text: (§1) Some typical compounds are selected for the research on the capability of in vitro resisting oxidative damage to crystalline lens induced by H2O2. The experiments are illustrated as follows:
(§2) Kill rats and rabbits, take out their eyeballs and rinse with saline containing 500 u/mL penicillin, split the eyeball from the posterior to remove eyeball wall and vitreous body, strip off the suspensory ligament, take out the crystalline lens and wash with PBS solution containing 500 u/mL penicillin and 0.5 mg/mL streptomycin for 5 min Before experiment, check with anatomical lens to confirm that there is no opacification or other abnormal condition in the crystalline lens, then place the crystalline lens in the sterilized 12-well plate containing 2 mL DMEM/high glucose (a product from Beijing Thermo Fisher Scientific Biochemical Product Co., Ltd.) sterile culture solution (which contains 100 u/mL penicillin and 0.1 mg/mL streptomycin), add different compounds for screening and pre-culture in a incubator with temperature of 37° C., humidity of 95% and 5% CO2 for 1 h, subsequently add 2 mL DEME culture solution containing H2O2 and FeCl3 (namely, total 4 mL culture solution in each well) (the total concentration of H2O2 in each well is 2% for rabbits, and 5% for rats, and the concentrations of FeCl3 are all 0.02%), culture under the same conditions for 24 hours. The experiments are divided into several groups as below and carried out in batches, with each batch provided with negative control group and model group.
(§3) A. Negative control group: DMEM culture solution without H2O2.
(§4) B. Model group (oxidative damage group): DMEM culture solution containing H2O2 and FeCl3.
(§5) C. Vitamin C group: besides the ingredients of the model group, further containing vitamin C (the final concentration is 1 mmol/L).
(§6) D. Bendazac lysine (BDL) group (BDL is provided by Zhejiang Shapuaisi Pharmaceutical Co. Ltd., and its purity is more than 98.5%): besides the ingredients of model group, further containing BDL (the final concentration is 0.5 mmol/L).
(§7) E. Sample group: besides the ingredients of model group, further containing sample (the final concentration is 0.5 mmol/L).
(§8) Evaluation criteria: according to large amount of experiments on the model group, the ratio between the percentage of different degrees of lens opacification in the groups and the percentage of different degrees of lens opacification in the model group is utilized as the definition, wherein, for slight improvement (√), the percentage of ++ (degrees II, III) should be lower than 67%, and the percentage of + (degree I) should be higher than 33%; for moderate improvement (√√), the percentage of ++(degrees II, III) further decreases; and the percentage of 0 (−) appears; for significant improvement (√√√), the percentage of ++ (degrees II, III) and + (degree I) disappears, and the lens are almost transparent.

[2] = system: in vitro eye lens of rats; assay: resisting oxidative damage to in vitro eye lens of rats induced by H2O2 (lens opacification grading); format: cell-based; conditions: rat lens; for Comments (improvement versus model group) / Observation Results + (number of lenses with mild opacity, degree I) / Observation Results ++ (number of lenses with moderate opacity, degree II) / Observation Results +++ (number of lenses totally opacified, degree III) / Percentages % + Degree (I) / Percentages % >++ Degrees (II, III): 5% H2O2 + 0.02% FeCl3, 24 h culture, sample and BDL 0.5 mmol/L; for Observation Results + (number of lenses with mild opacity, degree I) / Observation Results ++ (number of lenses with moderate opacity, degree II) / Observation Results +++ (number of lenses totally opacified, degree III) / Percentages % + Degree (I) / Percentages % >++ Degrees (II, III): vitamin C 1 mmol/L; for inhibitory effects on oxidative damage to in vitro eye lens of rats induced by H2O2: sample 0.5 mmol/L, summary of table 2
Text: as §1, §2, §3, §4, §5, §6, §7
as §8, with “lens turbidity” for “lens opacification”, “than 72%,” for “than 67%,”, “than 20%;” for “than 33%;”, “improvement (√√)” for “improvement (√√),”, “and +(degree” for “and + (degree”

SMILES	Comments (improvement versus model group) [1]	Observation Results + (number of lenses with mild opacity, degree I) [1]	Observation Results ++ (number of lenses with moderate opacity, degree II) [1]	Percentages for different degrees % + Degree (I) [1] [%]	Percentages for different degrees % >++ Degrees(I, II) [1] [%]	Comments (improvement versus model group) [2]	Observation Results + (number of lenses with mild opacity, degree I) [2]	Observation Results ++ (number of lenses with moderate opacity, degree II) [2]	Observation Results +++ (number of lenses totally opacified, degree III) [2]	Percentages % + Degree (I) [2] [%]	Percentages % >++ Degrees (II, III) [2] [%]	Observation Results +++ (number of lenses totally opacified, degree III) [1]	inhibitory effects on oxidative damage to in vitro eye lens of rabbits induced by H2O2 [1]	inhibitory effects on oxidative damage to in vitro eye lens of rats induced by H2O2 [2]
O=C(O)COc1nn(Cc2ccccc2)c2ccccc12 [BDL, Bendazac lysine, reference compound]	✓	9	3	75	25	✓	30	22	3	54	46			
O=C1O[C@H]([C@@H](O)CO)C(O)=C1O [VC, vitamin C, reference compound]		13	16	42	58		7	8	3	39	61	2		
O=C([O-])C(Oc1nn(Cc2ccccc2)c2ccccc12)C(=O)[O-].[Na+].[Na+] [Y1, 2-(1-benzyl-1H-indazole-3-oxyl) malonate disodium]		4	3	57	43	✓	4	1		80	20		not significant	showing inhibitory effects
O=C([O-])C(Oc1nn(Cc2ccccc2)c2ccccc12)C(=O)[O-].[K+].[K+] [Y2, 2-(1-benzyl-1H-indazole-3-oxyl) malonate dipotassium]		2	3	29	71			3	3		100	2	not significant	not significant
N[C@@H](Cc1c[nH]cn1)C(=O)O.N[C@@H](Cc1c[nH]cn1)C(=O)O.O=C(O)C(Oc1nn(Cc2ccccc2)c2ccccc12)C(=O)O [Y4, 2-(1-benzyl-1H-indazole-3-oxyl) malonate dihistidine]	✓	14	7	67	33	✓	18	3		86	14		showing inhibitory effects	showing inhibitory effects
NCCCC[C@H](N)C(=O)O.NCCCC[C@H](N)C(=O)O.O=C(O)C(Oc1nn(Cc2ccccc2)c2ccccc12)C(=O)O [Y5, 2-(1-benzyl-1H-indazole-3-oxyl) malonate dilysine]		2	2	33	67		1	4	1	17	83	2	not significant	showing inhibitory effects
O=C([O-])C(Oc1nn(Cc2cccc(F)c2)c2ccccc12)C(=O)[O-].[Na+].[Na+] [Y10, 2-[1-(3-fluoro-benzyl)-1H-indazole-3-oxyl) malonate disodium]	✓	4	1	80	20	✓	47	28	3	60	40		showing inhibitory effects	not significant
NCCCC[C@H](N)C(=O)O.NCCCC[C@H](N)C(=O)O.O=C(O)C(Oc1nn(Cc2cccc(F)c2)c2ccccc12)C(=O)O [Y14, 2-[1-(3-fluoro-benzyl)-1H-indazole-3-oxyl) malonate dilysine]						✓	10	8		56	44			showing inhibitory effects
NCCCC[C@H](N)C(=O)O.NCCCC[C@H](N)C(=O)O.O=C(O)C(Oc1nn(Cc2cccc(Cl)c2)c2ccccc12)C(=O)O [Y19, 2-[1-(3-chloro-benzyl)-1H-indazole-3-oxyl]malonate dilysine]					100	✓	18	10	4	56	44	3	not significant	showing inhibitory effects
